Source: EP0293826A2, “Therapeutic and prophylactic application of sulfated polysaccharides against AIDS” (priority 1987, dated 1988)

Test system: human immuno deficiency virus (HIV)
Test: not given
Conditions: cited from earlier work

Compound | concentration completely protecting ATH8 cells against the cytopathogenicity of HIV
Cc1cn([C@H]2C[C@H](N=[N+]=[N-])[C@@H](CO)O2)c(=O)[nH]c1=O [AZT, 3 -azido-2',3 -dideoxythymidine] | 1-5 µ.M
Cc1cc(-c2ccc(/N=N/c3ccc4c(S(=O)(=O)O)cc(S(=O)(=O)O)c(N)c4c3O)c(C)c2)ccc1/N=N/c1ccc2c(S(=O)(=O)O)cc(S(=O)(=O)O)c(N)c2c1O [Evans Blue] | 25 µg/mL
Cc1ccc(C(=O)Nc2ccc(S(=O)(=O)O)c3cc(S(=O)(=O)O)cc(S(=O)(=O)O)c23)cc1NC(=O)c1cccc(NC(=O)Nc2cccc(C(=O)Nc3cc(C(=O)Nc4ccc(S(=O)(=O)O)c5cc(S(=O)(=O)O)cc(S(=O)(=O)O)c45)ccc3C)c2)c1 [suramin] | 50 µg/mL

Test system: HIV-1
Test: Inhibition of HIV-1 replication in MT-4 cells (trypan blue exclusion, day 5)
Format: cell-based
Conditions: not given
Experimental: MT-4 cells were suspended at 5 x 10^s cells per ml and infected with HIV-1 at 1000 CCIDso per ml (1 CCIDso being the 50% cell culture infective dose). After 2 h-incubation at 37° C, 5 x 10^4 cells per 100 µl were brought into each well of a flat-bottomed 96-well plastic microtiter tray containing 100 µl of various dilutions of the test compounds. After 5 days incubation at 37° C, the number of viable cells was determined microscopically in an hemacytometer by trypan blue exclusion. Anti-HIV-1 activity of the compounds was also determined by monitoring viral antigen expression in HUT-78 cells at day 14 after infection, measured by indirect immunifluorescence, using a polyclonal antibody as probe.

Compound | concentration at which no anti-HIV-1 activity was shown [µg/mL]
N[C@H]1C(O)O[C@H](CO)[C@@H](O)[C@@H]1OS(=O)(=O)O (stereo partly shown) [glucosamine 3-sulfate, glucosamine-3-sulfate] | > 125
N[C@H]1C(O)O[C@H](COS(=O)(=O)O)[C@@H](O)[C@@H]1O (stereo partly shown) [glucosamine 6-sulfate, glucosamine-6-sulfate] | > 125
glucosamine-2,3-disulfate [glucosamine 2,3-disulfate] | > 125
glucosamine-2-sulfate [glucosamine 2-sulfate] | > 125
